ChEMBL document CHEMBL1144292, “Estrogen receptor ligands. Part 11: Synthesis and activity of isochromans and isothiochromans” (Bioorg Med Chem Lett, 2005)

Key:
[1] = target: T1, Estrogen receptor (Homo sapiens, UniProt P03372)
T1 sequence (P03372 whole entry): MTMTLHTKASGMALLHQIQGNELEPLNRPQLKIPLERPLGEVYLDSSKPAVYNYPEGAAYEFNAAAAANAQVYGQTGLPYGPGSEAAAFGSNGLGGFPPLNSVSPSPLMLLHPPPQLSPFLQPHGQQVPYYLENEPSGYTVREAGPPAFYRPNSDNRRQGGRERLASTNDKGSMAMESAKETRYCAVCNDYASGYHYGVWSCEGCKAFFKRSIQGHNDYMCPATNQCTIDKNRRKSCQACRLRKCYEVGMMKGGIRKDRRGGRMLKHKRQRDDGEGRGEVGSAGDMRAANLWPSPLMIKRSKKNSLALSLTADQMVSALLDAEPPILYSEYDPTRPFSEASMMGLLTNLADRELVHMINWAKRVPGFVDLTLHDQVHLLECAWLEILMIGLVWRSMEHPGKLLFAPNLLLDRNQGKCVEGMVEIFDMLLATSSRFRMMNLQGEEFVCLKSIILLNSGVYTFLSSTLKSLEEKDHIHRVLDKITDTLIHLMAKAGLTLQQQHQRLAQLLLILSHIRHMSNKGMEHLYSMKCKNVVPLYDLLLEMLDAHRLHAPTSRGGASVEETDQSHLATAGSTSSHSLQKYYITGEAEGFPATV
Description: Binding affinity for human estrogen receptor alpha

[2] = target: Estrogen receptor beta (Homo sapiens, UniProt Q92731)
Description: Binding affinity for human estrogen receptor beta

[3] = target: Estrogen receptor (Homo sapiens, UniProt Q92731+P03372); settings: mcf-7
Description: Inhibition of MCF-7 cell proliferation

Sequence of Estrogen receptor beta (Q92731 whole entry): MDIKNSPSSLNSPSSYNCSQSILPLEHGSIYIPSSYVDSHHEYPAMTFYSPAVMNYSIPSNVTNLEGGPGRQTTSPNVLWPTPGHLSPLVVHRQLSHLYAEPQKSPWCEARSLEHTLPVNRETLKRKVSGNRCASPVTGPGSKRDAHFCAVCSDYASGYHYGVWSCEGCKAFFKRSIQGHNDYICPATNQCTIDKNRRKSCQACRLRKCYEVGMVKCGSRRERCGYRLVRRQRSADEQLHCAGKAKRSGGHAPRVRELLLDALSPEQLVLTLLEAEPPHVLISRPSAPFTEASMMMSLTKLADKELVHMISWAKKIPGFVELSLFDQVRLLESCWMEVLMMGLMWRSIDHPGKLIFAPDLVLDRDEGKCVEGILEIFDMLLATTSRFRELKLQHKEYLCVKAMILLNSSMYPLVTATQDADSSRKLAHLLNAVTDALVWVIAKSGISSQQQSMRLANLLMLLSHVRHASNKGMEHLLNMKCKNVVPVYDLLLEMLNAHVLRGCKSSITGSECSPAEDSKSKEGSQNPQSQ

For `COc1ccc2c(c1)CO[C@H](c1ccccc1)[C@@H]2c1ccc(OCCN2CCCC2)cc1`, the IC50 [1] was 39 nM, the IC50 [2] was 315 nM and the IC50 [3] was 57 nM.

`COc1ccc2c(c1)CS[C@H](c1ccccc1)[C@@H]2c1ccc(OCCN2CCCC2)cc1` showed an IC50 [1] of 13 nM, an IC50 [2] of 110 nM and an IC50 [3] of 164 nM.

Compound `Oc1ccc2c(c1)CO[C@H](c1ccccc1)[C@@H]2c1ccc(OCCN2CCCC2)cc1` has an IC50 [1] of 2.4 nM, an IC50 [2] of 3.6 nM and an IC50 [3] of 0.15 nM.

Compound `Oc1ccc2c(c1)CS[C@H](c1ccccc1)[C@@H]2c1ccc(OCCN2CCCC2)cc1` has an IC50 [1] of 0.6 nM, an IC50 [2] of 2.1 nM and an IC50 [3] of 0.25 nM.
